{"source": "ChEMBL document CHEMBL4190285", "about": "“Borapetoside E, a Clerodane Diterpenoid Extracted from Tinospora crispa, Improves Hyperglycemia and Hyperlipidemia in High-Fat-Diet-Induced Type 2 Diabetes Mice” (J Nat Prod, 2017)", "key": {"Mus musculus [1]": {"test_system": "Mus musculus", "experiment": "Down regulation of LXRalpha mRNA expression in HFD-induced obese C57BL/6J mouse liver at 20 to 40 mg/kg, ip administered twice daily for 2.5 days measured at 2 hrs post last dose by RT-PCR analysis", "format": "functional, organism-based"}, "Mus musculus [2]": {"test_system": "Mus musculus", "experiment": "Antihyperglycemic activity in high fat diet-induced obese C57BL/6J mouse assessed as reduction in blood glucose level at 20 to 40 mg/kg, ip administered twice daily for 2.5 days measured after 2 hrs post last dose", "format": "functional, organism-based"}, "Mus musculus [3]": {"test_system": "Mus musculus", "experiment": "Antihyperglycemic activity in high fat diet-induced obese C57BL/6J mouse assessed as reduction in blood glucose level at 20 to 40 mg/kg, ip administered twice daily for 2.5 days measured at 3 days post last dose", "format": "functional, organism-based"}, "Mus musculus [4]": {"test_system": "Mus musculus", "experiment": "Improvement in insulin resistance in high fat diet-induced obese C57BL/6J mouse assessed as increase in phosphorylated AKT ser473 level in liver at 40 mg/kg, ip administered twice daily for 2.5 days measured at 2 hrs post last dose by Western blot analysis", "format": "functional, organism-based"}, "Mus musculus [5]": {"test_system": "Mus musculus", "experiment": "Improvement in insulin resistance in high fat diet-induced obese C57BL/6J mouse assessed as reduction in fasting serum insulin level at 40 mg/kg, ip pretreated twice daily for 2.5 days followed by insulin challenge at 2 hrs post last dose measured up to 2 hrs by ELISA based ITT", "format": "functional, organism-based"}, "Mus musculus [6]": {"test_system": "Mus musculus", "experiment": "Antihyperlipidemic activity in high fat diet-induced obese C57BL/6J mouse assessed as serum triglyceride levels at 20 mg/kg, ip administered twice daily for 2.5 days measured at 2 hrs post last dose (reference value: 1.31 +/- 0.48 mmol/L)", "format": "functional"}, "Mus musculus [7]": {"test_system": "Mus musculus", "experiment": "Antihyperlipidemic activity in high fat diet-induced obese C57BL/6J mouse assessed as serum LDL-C levels at 20 mg/kg, ip administered twice daily for 2.5 days measured at 2 hrs post last dose (reference value: 2.54 +/- 0.87 mmol/L)", "format": "functional"}, "Mus musculus [8]": {"test_system": "Mus musculus", "experiment": "Antihyperlipidemic activity in high fat diet-induced obese C57BL/6J mouse assessed as serum HDL-C levels at 20 mg/kg, ip administered twice daily for 2.5 days measured at 2 hrs post last dose (reference value: 1.82 +/- 0.58 mmol/L)", "format": "functional"}, "Mus musculus [9]": {"test_system": "Mus musculus", "experiment": "Antihyperlipidemic activity in high fat diet-induced obese C57BL/6J mouse assessed as serum total cholesterol levels at 20 mg/kg, ip administered twice daily for 2.5 days measured at 2 hrs post last dose (reference value: 4.56 +/- 1.01 mmol/L)", "format": "functional"}, "Mus musculus [10]": {"test_system": "Mus musculus", "experiment": "Antihyperlipidemic activity in high fat diet-induced obese C57BL/6J mouse assessed as serum free fatty acid levels at 20 mg/kg, ip administered twice daily for 2.5 days measured at 2 hrs post last dose (reference value: 1.41 +/- 0.3 mmol/L)", "format": "functional"}, "Mus musculus [11]": {"test_system": "Mus musculus", "experiment": "Antihyperlipidemic activity in high fat diet-induced obese C57BL/6J mouse assessed as serum HDL-C levels at 40 mg/kg, ip administered twice daily for 2.5 days measured at 2 hrs post last dose (reference value: 1.82 +/- 0.58 mmol/L)", "format": "functional"}, "Mus musculus [12]": {"test_system": "Mus musculus", "experiment": "Antihyperlipidemic activity in high fat diet-induced obese C57BL/6J mouse assessed as serum total cholesterol levels at 40 mg/kg, ip administered twice daily for 2.5 days measured at 2 hrs post last dose (reference value: 4.56 +/- 1.01 mmol/L)", "format": "functional"}, "Mus musculus [13]": {"test_system": "Mus musculus", "experiment": "Antihyperlipidemic activity in high fat diet-induced obese C57BL/6J mouse assessed as serum free fatty acid levels at 40 mg/kg, ip administered twice daily for 2.5 days measured at 2 hrs post last dose (reference value: 1.41 +/- 0.3 mmol/L)", "format": "functional"}, "Mus musculus [14]": {"test_system": "Mus musculus", "experiment": "Antihyperlipidemic activity in high fat diet-induced obese C57BL/6J mouse assessed as reduction in liver free fatty acid level at 20 to 40 mg/kg, ip administered twice daily for 2.5 days measured at 2 hrs post last dose", "format": "functional, organism-based"}, "Mus musculus [15]": {"test_system": "Mus musculus", "experiment": "Antihyperlipidemic activity in high fat diet-induced obese C57BL/6J mouse assessed as reduction in triglyceride level in epididymis adipose tissue at 20 to 40 mg/kg, ip administered twice daily for 2.5 days measured at 2 hrs post last dose", "format": "functional, organism-based"}, "Mus musculus [16]": {"test_system": "Mus musculus", "experiment": "Antihyperlipidemic activity in high fat diet-induced obese C57BL/6J mouse assessed as reduction in cholesterol level in epididymis adipose tissue at 20 to 40 mg/kg, ip administered twice daily for 2.5 days measured at 2 hrs post last dose", "format": "functional, organism-based"}, "Mus musculus [17]": {"test_system": "Mus musculus", "experiment": "Antiobesity activity in HFFD-induced obese C57BL/6J mouse assessed as reduction in hepatic steatosis at 40 mg/kg, ip administered twice daily for 2.5 days followed by once daily dosing up to 16 days measured at 2 hrs post last dose by Oil red O staining based histological analysis", "format": "functional, organism-based"}, "Mus musculus [18]": {"test_system": "Mus musculus", "experiment": "Antiobesity activity in HFFD-induced obese C57BL/6J mouse assessed as reduction in size of adipocytes at 40 mg/kg, ip administered twice daily for 2.5 days followed by once daily dosing up to 16 days measured at 2 hrs post last dose by hematoxylin-eosin staining based histological analysis", "format": "functional, organism-based"}, "Mus musculus [19]": {"test_system": "Mus musculus", "experiment": "Down regulation of SREBP1 mRNA expression in HFD-induced obese C57BL/6J mouse liver at 20 to 40 mg/kg, ip administered twice daily for 2.5 days measured at 2 hrs post last dose by RT-PCR analysis", "format": "functional, organism-based"}, "Mus musculus [20]": {"test_system": "Mus musculus", "experiment": "Down regulation of SREBP2 mRNA expression in HFD-induced obese C57BL/6J mouse liver at 20 to 40 mg/kg, ip administered twice daily for 2.5 days measured at 2 hrs post last dose by RT-PCR analysis", "format": "functional, organism-based"}, "Mus musculus [21]": {"test_system": "Mus musculus", "experiment": "Down regulation of HMGCR mRNA expression in HFD-induced obese C57BL/6J mouse liver at 20 to 40 mg/kg, ip administered twice daily for 2.5 days measured at 2 hrs post last dose by RT-PCR analysis", "format": "functional, organism-based"}, "Mus musculus [22]": {"test_system": "Mus musculus", "experiment": "Down regulation of HMGCS mRNA expression in HFD-induced obese C57BL/6J mouse adipose tissue at 20 to 40 mg/kg, ip administered twice daily for 2.5 days measured at 2 hrs post last dose by RT-PCR analysis", "format": "functional, organism-based"}, "Mus musculus [23]": {"test_system": "Mus musculus", "experiment": "Down regulation of HMGCR mRNA expression in HFD-induced obese C57BL/6J mouse adipose tissue at 20 to 40 mg/kg, ip administered twice daily for 2.5 days measured at 2 hrs post last dose by RT-PCR analysis", "format": "functional, organism-based"}, "Mus musculus [24]": {"test_system": "Mus musculus", "experiment": "Down regulation of ABCG5 mRNA expression in HFD-induced obese C57BL/6J mouse liver at 20 to 40 mg/kg, ip administered twice daily for 2.5 days measured at 2 hrs post last dose by RT-PCR analysis", "format": "functional, organism-based"}, "Mus musculus [25]": {"test_system": "Mus musculus", "experiment": "Down regulation of pre-SREBP1 expression in HFD-induced obese C57BL/6J mouse liver at 20 to 40 mg/kg, ip administered twice daily for 2.5 days measured at 2 hrs post last dose by Western blot analysis", "format": "functional, organism-based"}, "Mus musculus [26]": {"test_system": "Mus musculus", "experiment": "Toxicity in HFFD-induced obese C57BL/6J mouse assessed as serum creatinine level at 40 mg/kg, ip administered twice daily for 2.5 days followed by once daily dosing up to 16 days measured at 2 hrs post last dose (reference value: 100.67 +/- 17.2 umol/L)", "format": "organism-based", "details": "in vivo"}, "Mus musculus [27]": {"test_system": "Mus musculus", "experiment": "Toxicity in HFFD-induced obese C57BL/6J mouse assessed as serum creatinine kinase level at 40 mg/kg, ip administered twice daily for 2.5 days followed by once daily dosing up to 16 days measured at 2 hrs post last dose (reference value: 551.93 +/- 126.48 U/L)", "format": "organism-based", "details": "in vivo"}}, "note": "The source made the active and inactive calls. No cut-off for these calls is given here.", "data": [{"compound": "COC(=O)C1=CCC[C@H]2[C@](C)(C[C@@H](O[C@@H]3O[C@H](CO)[C@@H](O)[C@H](O)[C@H]3O)c3ccoc3)[C@H]3C[C@H](OC3=O)[C@@]12C", "values": [{"measurement": "Activity", "setting": "Mus musculus [1]", "result": "Active"}, {"measurement": "Activity", "setting": "Mus musculus [2]", "result": "Active"}, {"measurement": "Activity", "setting": "Mus musculus [3]", "result": "Active"}, {"measurement": "Activity", "setting": "Mus musculus [4]", "result": "Active"}, {"measurement": "Activity", "setting": "Mus musculus [5]", "result": "Active"}, {"measurement": "Activity", "setting": "Mus musculus [6]", "result": 1.09, "unit": "mmol/L"}, {"measurement": "Activity", "setting": "Mus musculus [7]", "result": 2.21, "unit": "mmol/L"}, {"measurement": "Activity", "setting": "Mus musculus [8]", "result": 1.2, "unit": "mmol/L"}, {"measurement": "Activity", "setting": "Mus musculus [9]", "result": 3.8, "unit": "mmol/L"}, {"measurement": "Activity", "setting": "Mus musculus [10]", "result": 1.39, "unit": "mmol/L"}, {"measurement": "Activity", "setting": "Mus musculus [11]", "result": 1.31, "unit": "mmol/L"}, {"measurement": "Activity", "setting": "Mus musculus [12]", "result": 2.24, "unit": "mmol/L"}, {"measurement": "Activity", "setting": "Mus musculus [13]", "result": 0.82, "unit": "mmol/L"}, {"measurement": "Activity", "setting": "Mus musculus [14]", "result": "Active"}, {"measurement": "Activity", "setting": "Mus musculus [15]", "result": "Active"}, {"measurement": "Activity", "setting": "Mus musculus [16]", "result": "Active"}, {"measurement": "Activity", "setting": "Mus musculus [17]", "result": "Active"}, {"measurement": "Activity", "setting": "Mus musculus [18]", "result": "Active"}, {"measurement": "Activity", "setting": "Mus musculus [19]", "result": "Active"}, {"measurement": "Activity", "setting": "Mus musculus [20]", "result": "Active"}, {"measurement": "Activity", "setting": "Mus musculus [21]", "result": "Active"}, {"measurement": "Activity", "setting": "Mus musculus [22]", "result": "Active"}, {"measurement": "Activity", "setting": "Mus musculus [23]", "result": "Active"}, {"measurement": "Activity", "setting": "Mus musculus [24]", "result": "Active"}, {"measurement": "Activity", "setting": "Mus musculus [25]", "result": "Active"}, {"measurement": "Activity", "setting": "Mus musculus [26]", "result": 86.37, "unit": "µmol/L"}, {"measurement": "Activity", "setting": "Mus musculus [27]", "result": 520.4, "unit": "U/L"}]}]}
